Test results from ChEMBL document CHEMBL4368922 (Bioorg Med Chem Lett, 2019).

What was measured:
MV4-11 [1] = assay: Antiproliferative activity against human MV4-11 cells after 240 hrs by MTS assay; assay type: functional, cell-based; conditions: MV4-11, 240 h
[2] = target: T1, Amine oxidase [flavin-containing] A (Homo sapiens, UniProt P21397)
T1 sequence (P21397 whole entry): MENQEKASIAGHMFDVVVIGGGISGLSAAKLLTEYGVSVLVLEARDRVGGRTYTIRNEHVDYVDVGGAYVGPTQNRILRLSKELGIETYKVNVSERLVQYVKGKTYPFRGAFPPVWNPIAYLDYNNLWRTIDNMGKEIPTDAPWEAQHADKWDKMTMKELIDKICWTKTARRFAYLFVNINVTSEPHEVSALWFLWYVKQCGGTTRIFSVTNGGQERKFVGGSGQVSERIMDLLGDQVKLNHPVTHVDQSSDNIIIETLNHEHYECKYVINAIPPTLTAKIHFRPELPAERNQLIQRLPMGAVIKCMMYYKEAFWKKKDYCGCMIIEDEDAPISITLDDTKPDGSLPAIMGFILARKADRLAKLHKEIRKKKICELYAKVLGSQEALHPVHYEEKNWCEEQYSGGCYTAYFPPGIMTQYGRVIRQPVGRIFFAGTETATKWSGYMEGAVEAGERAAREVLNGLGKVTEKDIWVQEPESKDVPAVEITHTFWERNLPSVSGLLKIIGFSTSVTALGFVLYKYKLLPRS
Description: (§1) Inhibition of MAOA (unknown origin) by Promega MAO-Glo assay

[3] = target: T2, Amine oxidase [flavin-containing] B (Homo sapiens, UniProt P27338)
T2 sequence (P27338 whole entry): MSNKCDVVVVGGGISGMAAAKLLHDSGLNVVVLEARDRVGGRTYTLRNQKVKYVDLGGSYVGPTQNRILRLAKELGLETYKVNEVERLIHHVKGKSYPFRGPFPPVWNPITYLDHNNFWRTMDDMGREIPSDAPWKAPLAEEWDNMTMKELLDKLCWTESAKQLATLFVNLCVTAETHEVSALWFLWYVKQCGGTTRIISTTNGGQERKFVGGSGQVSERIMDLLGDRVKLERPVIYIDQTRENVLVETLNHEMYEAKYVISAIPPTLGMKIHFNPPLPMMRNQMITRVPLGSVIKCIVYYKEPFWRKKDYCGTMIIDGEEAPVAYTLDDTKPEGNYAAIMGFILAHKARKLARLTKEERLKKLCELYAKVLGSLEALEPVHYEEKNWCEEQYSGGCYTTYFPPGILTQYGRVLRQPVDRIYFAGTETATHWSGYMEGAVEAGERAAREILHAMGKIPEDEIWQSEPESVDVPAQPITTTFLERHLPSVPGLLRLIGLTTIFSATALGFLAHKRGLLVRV
Description: (§2) Inhibition of MAOB (unknown origin) by Promega MAO-Glo assay

[4] = target: Menin/Histone-lysine N-methyltransferase MLL (Homo sapiens, UniProt O00255+Q03164)
Description: (§3) Inhibition of full length human menin/FAM-tagged MLL1 (unknown origin) protein-protein interaction after 15 mins by fluorescence polarization assay

[5] = target: T3, Lysine-specific histone demethylase 1A (Homo sapiens, UniProt O60341)
Description: (§4) Inhibition of recombinant human LSD1 (172 to 852 residues) using biotin-labelled H3K4me2 (1 to 24 residues) after 1 hr by TR-FRET assay

MV4-11 [6] = assay: cells; conditions: Homo sapiens, MV4-11, 168 h
Description: Antiproliferative activity against human MV4-11 cells after 168 hrs by MTS assay

[7] = target: Menin/Histone-lysine N-methyltransferase MLL (Homo sapiens, UniProt O00255)
Description: as §3

[8] = target: T3, Lysine-specific histone demethylase 1A; assay: Inhibition of LSD1 in human MV4-11 cells assessed as increase in CD86 mRNA expression at 500 nM by SYBR Green dye-bsed RT-qPCR analysis relative to control; assay type: cell-based
[9] = target: T1, Amine oxidase [flavin-containing] A; remark: listed apart in the source
Description: as §1

[10] = target: T2, Amine oxidase [flavin-containing] B; remark: listed apart in the source
Description: as §2

[11] = target: T3, Lysine-specific histone demethylase 1A; remark: listed apart in the source
Description: as §4

[12] = target: T3, Lysine-specific histone demethylase 1A; assay: Inhibition of LSD1 in human MV4-11 cells assessed as increase in CD86 mRNA expression at 100 nM by SYBR Green dye-bsed RT-qPCR analysis relative to control; assay type: cell-based

Menin/Histone-lysine N-methyltransferase MLL (Homo sapiens, UniProt O00255), sequence (O00255 whole entry): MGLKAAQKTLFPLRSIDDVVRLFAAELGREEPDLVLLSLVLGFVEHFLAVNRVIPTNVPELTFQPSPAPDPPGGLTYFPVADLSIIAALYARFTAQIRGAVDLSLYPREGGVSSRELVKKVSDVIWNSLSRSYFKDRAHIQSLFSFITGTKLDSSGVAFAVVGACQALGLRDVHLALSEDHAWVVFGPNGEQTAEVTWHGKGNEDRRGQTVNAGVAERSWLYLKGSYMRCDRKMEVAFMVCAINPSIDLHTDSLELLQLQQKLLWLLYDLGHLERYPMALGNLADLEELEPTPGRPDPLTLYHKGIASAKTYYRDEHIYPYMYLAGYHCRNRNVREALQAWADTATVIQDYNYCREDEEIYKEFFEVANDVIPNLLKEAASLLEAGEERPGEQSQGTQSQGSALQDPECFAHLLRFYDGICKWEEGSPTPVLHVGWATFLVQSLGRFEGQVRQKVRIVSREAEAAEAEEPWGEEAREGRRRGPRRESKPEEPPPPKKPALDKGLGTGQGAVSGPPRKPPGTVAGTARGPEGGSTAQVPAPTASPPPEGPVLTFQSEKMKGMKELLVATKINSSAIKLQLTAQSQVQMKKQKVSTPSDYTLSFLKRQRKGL
Menin/Histone-lysine N-methyltransferase MLL (Homo sapiens, UniProt O00255), sequence (Q03164 1-2718 partner limits assumed): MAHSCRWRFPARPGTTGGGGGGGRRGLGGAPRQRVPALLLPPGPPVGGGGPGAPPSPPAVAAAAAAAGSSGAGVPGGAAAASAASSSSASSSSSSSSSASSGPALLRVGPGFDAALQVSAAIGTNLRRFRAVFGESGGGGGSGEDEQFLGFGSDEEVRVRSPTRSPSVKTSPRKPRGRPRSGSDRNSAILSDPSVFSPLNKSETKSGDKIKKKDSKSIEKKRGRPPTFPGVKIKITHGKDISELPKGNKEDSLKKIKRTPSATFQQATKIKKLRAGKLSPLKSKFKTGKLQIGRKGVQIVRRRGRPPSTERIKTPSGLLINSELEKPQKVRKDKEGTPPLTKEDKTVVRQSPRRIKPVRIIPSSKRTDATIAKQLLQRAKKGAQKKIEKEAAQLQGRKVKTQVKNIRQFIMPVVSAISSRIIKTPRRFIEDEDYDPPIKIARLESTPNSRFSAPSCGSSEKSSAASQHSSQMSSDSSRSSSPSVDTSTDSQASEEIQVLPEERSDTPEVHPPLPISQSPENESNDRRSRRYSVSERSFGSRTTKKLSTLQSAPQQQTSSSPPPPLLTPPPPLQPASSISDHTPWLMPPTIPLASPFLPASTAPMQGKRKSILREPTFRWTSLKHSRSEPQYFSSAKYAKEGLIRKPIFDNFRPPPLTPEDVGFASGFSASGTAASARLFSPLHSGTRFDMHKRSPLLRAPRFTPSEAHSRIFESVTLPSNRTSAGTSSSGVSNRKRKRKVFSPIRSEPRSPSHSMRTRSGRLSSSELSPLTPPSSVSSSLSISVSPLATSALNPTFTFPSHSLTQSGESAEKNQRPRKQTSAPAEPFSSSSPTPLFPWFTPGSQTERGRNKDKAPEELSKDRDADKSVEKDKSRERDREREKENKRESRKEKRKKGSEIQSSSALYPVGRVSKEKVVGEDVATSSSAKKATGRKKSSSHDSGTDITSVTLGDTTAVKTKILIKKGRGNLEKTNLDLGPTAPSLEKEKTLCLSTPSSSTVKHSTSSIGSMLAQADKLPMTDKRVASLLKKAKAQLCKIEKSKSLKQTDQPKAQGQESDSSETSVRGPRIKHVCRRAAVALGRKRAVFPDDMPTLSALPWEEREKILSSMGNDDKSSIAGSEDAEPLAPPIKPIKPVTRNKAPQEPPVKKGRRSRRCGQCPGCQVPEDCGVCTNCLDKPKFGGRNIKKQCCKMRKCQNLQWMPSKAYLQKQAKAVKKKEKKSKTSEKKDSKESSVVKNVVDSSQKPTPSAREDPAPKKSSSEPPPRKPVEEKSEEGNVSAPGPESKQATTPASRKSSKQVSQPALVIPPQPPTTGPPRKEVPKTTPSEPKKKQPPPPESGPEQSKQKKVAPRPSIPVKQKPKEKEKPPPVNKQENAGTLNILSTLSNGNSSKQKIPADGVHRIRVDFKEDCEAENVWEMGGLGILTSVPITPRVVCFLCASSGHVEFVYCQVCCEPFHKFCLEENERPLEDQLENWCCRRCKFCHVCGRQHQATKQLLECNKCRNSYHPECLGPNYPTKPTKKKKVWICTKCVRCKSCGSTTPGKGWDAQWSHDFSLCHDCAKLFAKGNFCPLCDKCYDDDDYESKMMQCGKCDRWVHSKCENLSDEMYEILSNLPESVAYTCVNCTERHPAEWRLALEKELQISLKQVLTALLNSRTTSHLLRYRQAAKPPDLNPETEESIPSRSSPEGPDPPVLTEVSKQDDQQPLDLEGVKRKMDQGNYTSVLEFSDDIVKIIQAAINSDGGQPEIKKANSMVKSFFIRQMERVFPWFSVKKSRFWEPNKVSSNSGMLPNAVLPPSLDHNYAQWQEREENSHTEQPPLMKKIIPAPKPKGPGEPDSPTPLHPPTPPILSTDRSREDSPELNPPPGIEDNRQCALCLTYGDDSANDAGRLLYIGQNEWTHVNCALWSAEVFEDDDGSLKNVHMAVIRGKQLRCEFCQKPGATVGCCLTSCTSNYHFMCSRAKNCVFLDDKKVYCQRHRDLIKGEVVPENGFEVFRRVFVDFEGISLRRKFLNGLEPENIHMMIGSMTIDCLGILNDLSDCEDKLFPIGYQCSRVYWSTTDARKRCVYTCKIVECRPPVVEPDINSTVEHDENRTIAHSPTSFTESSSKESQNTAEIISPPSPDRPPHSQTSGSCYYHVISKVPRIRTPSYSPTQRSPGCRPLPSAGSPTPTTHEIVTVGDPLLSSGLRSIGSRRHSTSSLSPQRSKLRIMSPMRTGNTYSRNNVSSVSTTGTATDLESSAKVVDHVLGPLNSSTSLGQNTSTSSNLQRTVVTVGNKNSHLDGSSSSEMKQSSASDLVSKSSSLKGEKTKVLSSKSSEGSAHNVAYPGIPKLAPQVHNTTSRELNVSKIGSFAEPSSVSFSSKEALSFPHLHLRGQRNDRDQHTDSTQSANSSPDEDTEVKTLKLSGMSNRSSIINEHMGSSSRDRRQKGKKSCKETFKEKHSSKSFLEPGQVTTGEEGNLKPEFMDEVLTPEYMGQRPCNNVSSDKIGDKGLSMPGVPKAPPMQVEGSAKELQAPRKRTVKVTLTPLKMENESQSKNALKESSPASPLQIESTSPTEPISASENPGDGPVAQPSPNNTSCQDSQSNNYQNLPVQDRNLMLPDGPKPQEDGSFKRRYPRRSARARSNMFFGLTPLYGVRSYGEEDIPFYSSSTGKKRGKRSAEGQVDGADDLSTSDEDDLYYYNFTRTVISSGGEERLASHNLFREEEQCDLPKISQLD
Menin/Histone-lysine N-methyltransferase MLL (Homo sapiens, UniProt O00255), sequence (Q03164 2719-3969 partner limits assumed): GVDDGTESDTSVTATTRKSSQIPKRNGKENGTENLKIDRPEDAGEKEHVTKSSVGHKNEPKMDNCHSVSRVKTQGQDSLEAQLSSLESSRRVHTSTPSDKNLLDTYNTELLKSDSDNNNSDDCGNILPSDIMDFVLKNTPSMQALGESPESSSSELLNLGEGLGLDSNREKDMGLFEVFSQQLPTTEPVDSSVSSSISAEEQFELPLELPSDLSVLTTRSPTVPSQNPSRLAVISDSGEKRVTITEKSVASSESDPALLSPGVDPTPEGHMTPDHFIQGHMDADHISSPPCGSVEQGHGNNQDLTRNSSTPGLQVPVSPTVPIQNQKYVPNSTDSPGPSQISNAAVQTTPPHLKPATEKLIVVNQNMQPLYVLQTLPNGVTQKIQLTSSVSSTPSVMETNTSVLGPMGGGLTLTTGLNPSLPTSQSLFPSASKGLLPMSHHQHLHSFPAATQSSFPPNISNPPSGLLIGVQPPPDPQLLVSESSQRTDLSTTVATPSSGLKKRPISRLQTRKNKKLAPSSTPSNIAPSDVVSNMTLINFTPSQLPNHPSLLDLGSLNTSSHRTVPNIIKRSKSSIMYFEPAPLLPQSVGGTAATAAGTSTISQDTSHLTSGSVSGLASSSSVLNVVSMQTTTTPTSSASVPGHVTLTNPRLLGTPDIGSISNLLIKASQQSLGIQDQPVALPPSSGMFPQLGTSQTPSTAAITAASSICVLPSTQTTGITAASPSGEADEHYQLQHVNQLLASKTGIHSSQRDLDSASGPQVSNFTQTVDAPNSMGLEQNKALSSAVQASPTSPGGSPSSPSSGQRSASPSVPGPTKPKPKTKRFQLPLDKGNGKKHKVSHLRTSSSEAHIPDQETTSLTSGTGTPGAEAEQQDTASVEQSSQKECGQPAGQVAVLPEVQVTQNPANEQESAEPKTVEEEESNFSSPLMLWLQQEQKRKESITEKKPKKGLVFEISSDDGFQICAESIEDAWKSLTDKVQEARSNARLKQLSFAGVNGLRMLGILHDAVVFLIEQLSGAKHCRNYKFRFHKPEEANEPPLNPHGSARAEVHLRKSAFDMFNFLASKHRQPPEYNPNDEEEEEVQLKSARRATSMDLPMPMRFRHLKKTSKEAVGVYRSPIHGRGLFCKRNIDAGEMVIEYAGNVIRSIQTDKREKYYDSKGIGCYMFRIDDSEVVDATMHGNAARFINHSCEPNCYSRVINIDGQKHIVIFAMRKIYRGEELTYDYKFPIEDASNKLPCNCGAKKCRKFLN
Menin/Histone-lysine N-methyltransferase MLL (Homo sapiens, UniProt O00255+Q03164), sequence (O00255 whole entry): as the sequence (O00255 whole entry) above
Menin/Histone-lysine N-methyltransferase MLL (Homo sapiens, UniProt O00255+Q03164), sequence (Q03164 1-2718 limits assumed): as the sequence (Q03164 1-2718 partner limits assumed) above
Menin/Histone-lysine N-methyltransferase MLL (Homo sapiens, UniProt O00255+Q03164), sequence (Q03164 2719-3969 limits assumed): as the sequence (Q03164 2719-3969 partner limits assumed) above

Row | IC50 [2] [µM] | IC50 [3] [µM] | IC50 [5] [µM] | IC50 (MV4-11 [6]) [µM] | IC50 [7] [µM] | fold change (FC) [8] | IC50 [9] | IC50 [10] | IC50 [11] | fold change (FC) [12] | Structure (SMILES) | IC50 (MV4-11 [1]) [µM] | IC50 [4]
1 | 21 | 20.4 | 0.36 | 6.96 | > 100 |  |  |  |  |  | Fc1ccc([C@@H]2C[C@H]2NC[C@H]2CC[C@H](Nc3ncnc4sc(CC(F)(F)F)cc34)CC2)cc1F |  | 
2 | 4.55 | 6.05 | 0.124 | 2.49 | 50.7 |  |  |  |  |  | FC(F)(F)Cc1cc2c(N[C@H]3CC[C@@H](N[C@@H]4C[C@H]4c4ccccc4)CC3)ncnc2s1 |  | 
3 | 12.9 | 28.8 | 0.187 | 3.6 | > 100 |  |  |  |  |  | FC(F)(F)Cc1cc2c(N[C@H]3CC[C@H](N[C@H]4C[C@@H]4c4ccccc4)CC3)ncnc2s1 |  | 
4 | 8.57 | 22 | 0.184 | 5.55 | > 100 |  |  |  |  |  | FC(F)(F)Cc1cc2c(N[C@H]3CC[C@H](CN[C@H]4C[C@@H]4c4ccccc4)CC3)ncnc2s1 |  | 
5 | 65.9 | > 100 | 0.303 | 0.49 | 36.9 | 16.4 |  |  |  |  | FC(F)(F)Cc1cc2c(N[C@H]3CC[C@H](N[C@@H]4C[C@H]4c4ccccc4)CC3)ncnc2s1 |  | 
6 | 8.27 | 36.7 | 0.692 | 7.31 | 34.5 |  |  |  |  |  | FC(F)(F)Cc1cc2c(N3CCC(N[C@H]4C[C@@H]4c4ccccc4)CC3)ncnc2s1 |  | 
7 | 2.23 | 1.16 | 0.0844 | 11.4 | 17.3 |  |  |  |  |  | FC(F)(F)Cc1cc2c(N3CCC(CN[C@@H]4C[C@H]4c4ccccc4)CC3)ncnc2s1 |  | 
8 | 9.19 | 9.63 | 0.061 | 5.97 | > 100 |  |  |  |  |  | FC(F)(F)Cc1cc2c(N3CCC(CN[C@H]4C[C@@H]4c4ccccc4)CC3)ncnc2s1 |  | 
9 | 12.5 | 40.3 | 0.211 | 0.29 | 10.2 | 22.3 |  |  |  |  | FC(F)(F)Cc1cc2c(N3CCC(N[C@@H]4C[C@H]4c4ccccc4)CC3)ncnc2s1 |  | 
10 | 20.8 | 49.5 | 0.252 | > 100 | 30.9 |  |  |  |  |  | Fc1ccc([C@@H]2C[C@H]2NCC2CCN(c3ncnc4sc(CC(F)(F)F)cc34)CC2)cc1F |  | 
11 |  |  |  | 2.6 |  |  | Not Active | Not Active | Not Active |  | CC1(C)CN=C(N2CCN(c3ncnc4sc(CC(F)(F)F)cc34)CC2)S1 |  | 
12 | > 100 | 75.6 | 0.242 | 3.42 | 24.7 |  |  |  |  |  | FC(F)(F)Cc1cc2c(N[C@H]3CC[C@@H](N[C@H]4C[C@@H]4c4ccccc4)CC3)ncnc2s1 |  | 
13 | 56.4 | 95.6 | 0.241 | > 100 | > 100 |  |  |  |  |  | Fc1ccc([C@@H]2C[C@H]2NC2CCN(c3ncnc4sc(CC(F)(F)F)cc34)CC2)cc1F |  | 
14 | 40.9 | 1.21 | 0.0661 | 0.51 | 2.13 |  |  |  |  | 7.59 | Fc1ccc([C@@H]2C[C@H]2N[C@H]2CC[C@@H](Nc3ncnc4sc(CC(F)(F)F)cc34)CC2)cc1F |  | 
15 | 4.1 | 4.81 | 0.109 | 2.96 | > 100 |  |  |  |  |  | FC(F)(F)Cc1cc2c(N[C@H]3CC[C@H](CN[C@@H]4C[C@H]4c4ccccc4)CC3)ncnc2s1 |  | 
16 | 47.5 | 71.6 | 0.146 | 2.01 | > 100 |  |  |  |  |  | Fc1ccc([C@@H]2C[C@H]2N[C@H]2CC[C@H](Nc3ncnc4sc(CC(F)(F)F)cc34)CC2)cc1F |  | 

Row | Structure (SMILES) | IC50 [2] [µM] | IC50 [3] [µM] | IC50 [5] [µM] | IC50 (MV4-11 [6]) [µM] | IC50 [7] [µM] | fold change (FC) [8] | IC50 [9] | IC50 [10] | IC50 [11] | fold change (FC) [12] | IC50 (MV4-11 [1]) [µM] | IC50 [4]
17 | O=C(O)c1ccc(CN2CCC(CN[C@@H]3C[C@H]3c3ccccc3)CC2)cc1 [GSK2879552] | > 100 | > 100 | 1.2 |  |  |  |  |  |  |  | 1.16 | Not Active
